# Like-named read-outs stand apart in the source and are kept apart here.
# Assays:
# rat [1] = assay: Rat hot plate test, 10 single daily intrathecal doses of elcatonin over 11 days (Example 12); type: in vivo; conditions: 4.4 IU/kg intrathecal, 10 daily doses in two 5 day phases (FIG. 8)
# Protocol: Intrathecal catheters were implanted in rats as described hereinabove, and a 7-10 day period thereafter allowed for full recovery from the surgical procedures. Nine rats were assigned to three treatment groups of three rats per group. The study is conducted in two 5 day treatment phases separated by a 48 hour nontreatment interval. Treatment Group I rats receive no treatment (sham injection). In each treatment phase, Group II rats received five consecutive daily intrathecal doses of sterile physiological saline (vehicle control), for a total of 10 injections per study treatment.
# For each treatment, hot plate latencies are determined as described in Example 5 hereinabove at 0 minutes (predose, baseline), 1 hour, 3 hours, and 24 hours following injection on the 1st, 3rd, 5th, 7th, 9th and 11th study days (Table 4).
# rat [2] = assay: Rat hot plate test, intrathecal elcatonin with 0.1% human serum albumin (Example 13); type: in vivo; conditions: 4.4 IU/kg intrathecal in 0.1% HSA, 5 day multiple administrations (FIG. 9)
# Protocol: On each study day, a standard 25% (wt/vol) solution of HSA is diluted under aseptic conditions with physiological saline ([…] of NaCl, USP grade) to achieve the desired stock solution concentration of 0.2% (wt/vol).
# Thirty-two male rats (320-420 g) are obtained, adapted, catheterized and recovered as described hereinabove. […] Group II rats are injected intrathecally with a dose of 4.4 IU/kg in physiological saline containing 0.1% HSA, in a volume of 10 μL/kg. Group III rats are injected with physiological saline containing 0.1% HSA, 10 μL/kg. Each dose is followed by a washout of 8 μL of physiological saline.
# In each of the study groups, hot plate latencies are determined at 0 minutes (baseline, predose), 1 hour, 3 hours, 6 hours, and 24 hours following intrathecal injections on the 1st, 3rd and 5th study days.
# rat [3] = system: rat
# Protocol: Intrathecal catheters were surgically implanted in the rats after application of anesthetic (Nembutal, 30 mg/kg, intraperitoneal) 5-7 days prior to the test procedure. The 5-7 day period prior to testing allowed for full recovery from the surgical procedures. […] Each catheter was anchored to the skull with cyanoacrylate adhesive, and the skull was closed with wound clips. The free end of each catheter was heat annealed; when compositions were to be injected via the intrathecal route each composition was introduced therein using a Hamilton needle inserted into the sealed catheter.
# Pain sensitivity was assessed using a standard analgesiometric hot plate test (Woolfe and MacDonald (1944) J. Pharmacol. Exp. Ther. 80:300). The hot plate response was determined by placing a rat on a 55° C. copper hot plate enclosed in a plexiglass cylinder.
# Because of the technical demands of these experiments, no more than 8-9 rats were tested on a given day. Sufficient animals were studied to obtain 10-11 evaluable rats per test condition. On the study day, animals were tested for baseline hot plate responses, and then received bolus injections of test analgesic or physiological saline (control). Hot plate responses were assessed again at 15 min, 30 min, 1 hr, 3 hr, 6 hr and 24 hr after intrathecal injection of test compound or vehicle control.
# Ninety-six (96) rats, ranging in weight from 320 g to 420 g, were used in this study. Catheters were implanted and recovery was allowed for as described hereinabove. […] Drug or saline vehicle doses were administered using Hamilton needles inserted into the catheters, with a dose volumes of 37.5 μL/kg followed by a 10 μL saline catheter wash-out. Baseline (pre-drug) and responses at 15 min, 30 min, 1 hr, 3 hr, 6 hr and 24 hr after drug or vehicle injection were determined.
# [4] = intrathecal, 30 min post-injection
substance,measurement,setting,value
"[Des-Cys^1,ASU^7 ]-Calcitonin, Eel [Elcatonin]",analgesic effect over time,rat [1],cumulative analgesic effect over time
same,hot plate latency,rat [1],hot plate latency is increased
same,hot plate latency,rat [2],increase in rat hot plate latency
same,Hot Plate Latency (Mean ± SEM),"rat [3]; 2.4 IU/kg (0.39 μg/kg, 0.12 nmol/kg) intrathecal single, 0 hr (baseline)",13.54 ± 1.91 s
same,Hot Plate Latency (Mean ± SEM),"rat [3]; 2.4 IU/kg (0.39 μg/kg, 0.12 nmol/kg) intrathecal single, 0.25 hr",19.70 ± 1.75 s
same,Hot Plate Latency (Mean ± SEM),"rat [3]; 2.4 IU/kg (0.39 μg/kg, 0.12 nmol/kg) intrathecal single, 0.5 hr",23.90 ± 3.12 s
same,Hot Plate Latency (Mean ± SEM),"rat [3]; 2.4 IU/kg (0.39 μg/kg, 0.12 nmol/kg) intrathecal single, 1 hr",24.68 ± 1.80 s
same,Hot Plate Latency (Mean ± SEM),"rat [3]; 2.4 IU/kg (0.39 μg/kg, 0.12 nmol/kg) intrathecal single, 3 hr",13.0 ± 0.7 s
same,Hot Plate Latency (Mean ± SEM),"rat [3]; 2.4 IU/kg (0.39 μg/kg, 0.12 nmol/kg) intrathecal single, 6 hr",12.1 s
same,Hot Plate Latency (Mean ± SEM),"rat [3]; 2.4 IU/kg (0.39 μg/kg, 0.12 nmol/kg) intrathecal single, 24 hr",10.8 ± 0.7 s
same,response at the lowest dose,rat [3]; 2.4 IU/kg or 0.39 μg/kg intrathecal,slightly smaller response
same,differences in hot plate latencies between doses,rat [3]; 3.6-6.0 IU/kg intrathecal,no apparent differences in hot plate latencies
same,Hot Plate Latency (Mean ± SEM),"rat [3]; 3.6 IU/kg (0.58 μg/kg, 0.18 nmol/kg) intrathecal single, 0 hr (baseline)",12.92 ± 1.4 s
same,Hot Plate Latency (Mean ± SEM),"rat [3]; 3.6 IU/kg (0.58 μg/kg, 0.18 nmol/kg) intrathecal single, 0.25 hr",21.04 ± 2.22 s
same,Hot Plate Latency (Mean ± SEM),"rat [3]; 3.6 IU/kg (0.58 μg/kg, 0.18 nmol/kg) intrathecal single, 0.5 hr",26.03 ± 3.08 s
same,Hot Plate Latency (Mean ± SEM),"rat [3]; 3.6 IU/kg (0.58 μg/kg, 0.18 nmol/kg) intrathecal single, 1 hr",26.08 ± 3.69 s
same,Hot Plate Latency (Mean ± SEM),"rat [3]; 3.6 IU/kg (0.58 μg/kg, 0.18 nmol/kg) intrathecal single, 3 hr",23.14 ± 3.05 s
same,Hot Plate Latency (Mean ± SEM),"rat [3]; 3.6 IU/kg (0.58 μg/kg, 0.18 nmol/kg) intrathecal single, 6 hr",20.37 s
same,Hot Plate Latency (Mean ± SEM),"rat [3]; 3.6 IU/kg (0.58 μg/kg, 0.18 nmol/kg) intrathecal single, 24 hr",15.79 ± 2.40 s
same,Hot Plate Latency (Mean ± SEM),"rat [3]; 4.4 IU/kg ([…], 0.22 nmol/kg) intrathecal single, 0 hr (baseline)",13.68 ± 1.10 s
same,Hot Plate Latency (Mean ± SEM),"rat [3]; 4.4 IU/kg ([…], 0.22 nmol/kg) intrathecal single, 0.25 hr",21.89 ± 3.12 s
same,Hot Plate Latency (Mean ± SEM),"rat [3]; 4.4 IU/kg ([…], 0.22 nmol/kg) intrathecal single, 0.5 hr",26.03 ± 3.36 s
same,Hot Plate Latency (Mean ± SEM),"rat [3]; 4.4 IU/kg ([…], 0.22 nmol/kg) intrathecal single, 1 hr",26.20 ± 2.37 s
same,Hot Plate Latency (Mean ± SEM),"rat [3]; 4.4 IU/kg ([…], 0.22 nmol/kg) intrathecal single, 3 hr",21.11 ± 2.18 s
same,Hot Plate Latency (Mean ± SEM),"rat [3]; 4.4 IU/kg ([…], 0.22 nmol/kg) intrathecal single, 6 hr",20.02 s
same,Hot Plate Latency (Mean ± SEM),"rat [3]; 4.4 IU/kg ([…], 0.22 nmol/kg) intrathecal single, 24 hr",11.78 ± 1.75 s
same,Hot Plate Latency (Mean ± SEM),"rat [3]; 5.2 IU/kg (0.84 μg/kg, 0.26 nmol/kg) intrathecal single, 0 hr (baseline)",13.41 ± 0.92 s
same,Hot Plate Latency (Mean ± SEM),"rat [3]; 5.2 IU/kg (0.84 μg/kg, 0.26 nmol/kg) intrathecal single, 0.25 hr",27.89 ± 3.10 s
same,Hot Plate Latency (Mean ± SEM),"rat [3]; 5.2 IU/kg (0.84 μg/kg, 0.26 nmol/kg) intrathecal single, 0.5 hr",31.55 ± 4.17 s
same,Hot Plate Latency (Mean ± SEM),"rat [3]; 5.2 IU/kg (0.84 μg/kg, 0.26 nmol/kg) intrathecal single, 1 hr",25.82 ± 3.79 s
same,Hot Plate Latency (Mean ± SEM),"rat [3]; 5.2 IU/kg (0.84 μg/kg, 0.26 nmol/kg) intrathecal single, 3 hr",28.81 ± 3.41 s
same,Hot Plate Latency (Mean ± SEM),"rat [3]; 5.2 IU/kg (0.84 μg/kg, 0.26 nmol/kg) intrathecal single, 6 hr",22.97 s
same,Hot Plate Latency (Mean ± SEM),"rat [3]; 5.2 IU/kg (0.84 μg/kg, 0.26 nmol/kg) intrathecal single, 24 hr",12.36 ± 1.69 s
same,Hot Plate Latency (Mean ± SEM),"rat [3]; 6.0 IU/kg (0.97 μg/kg, 0.30 nmol/kg) intrathecal single, 0 hr (baseline)",11.38 ± 0.89 s
same,Hot Plate Latency (Mean ± SEM),"rat [3]; 6.0 IU/kg (0.97 μg/kg, 0.30 nmol/kg) intrathecal single, 0.25 hr",25.22 ± 4.13 s
same,Hot Plate Latency (Mean ± SEM),"rat [3]; 6.0 IU/kg (0.97 μg/kg, 0.30 nmol/kg) intrathecal single, 0.5 hr",28.91 ± 3.40 s
same,Hot Plate Latency (Mean ± SEM),"rat [3]; 6.0 IU/kg (0.97 μg/kg, 0.30 nmol/kg) intrathecal single, 1 hr",24.48 ± 3.35 s
same,Hot Plate Latency (Mean ± SEM),"rat [3]; 6.0 IU/kg (0.97 μg/kg, 0.30 nmol/kg) intrathecal single, 3 hr",26.60 ± 3.87 s
same,Hot Plate Latency (Mean ± SEM),"rat [3]; 6.0 IU/kg (0.97 μg/kg, 0.30 nmol/kg) intrathecal single, 6 hr",24.69 s
same,Hot Plate Latency (Mean ± SEM),"rat [3]; 6.0 IU/kg (0.97 μg/kg, 0.30 nmol/kg) intrathecal single, 24 hr",11.17 ± 1.80 s
same,hot plate analgesia compared with morphine sulfate (49.42-164.73 nmol/kg),"rat [3]; 6 hours post-injection, all tested doses of elcatonin (0.12-0.30 nmol/kg)",more potent hot plate analgesia than all tested doses of morphine sulfate
same,"duration of analgesia, elcatonin compared with morphine",rat [3]; intrathecal,generally longer duration of analgesic activity than morphine
same,"molar concentration producing potent analgesia, lower than morphine sulfate by",rat [3]; intrathecal,approximately 1000 fold
same,dose approximately equivalent to 164.73 nmol/kg morphine sulfate (125.0 μg/kg),rat [3]; [4],~0.18 nmol/kg
same,dose producing a hot plate latency similar to 98.84 nmol/kg morphine sulfate (75.0 μg/kg),rat [3]; [4],~0.12 nmol/kg
same,onset of antinociception/analgesia post-injection,"rat [3]; intrathecal, all tested doses",≤ 15 min
same,time of peak antinociception,"rat [3]; intrathecal, all tested doses (2.4-6.0 IU/kg)",30 to 60 min
same,analgesia compared to intrathecal morphine,"rat [3]; rat hot plate, intrathecal",dramatically improved analgesia

# Source: patent publication US5721207A, “Method for treatment of pain” (Innapharma, Inc., priority 1995, dated 1998)
